Reference: patent US5262403A, “Glycosaminoglycan derivatives and their use as inhibitors of tumor invasiveness of metastatic profusion-II” (priority 1990, dated 1993)
Entries after “also recorded” stand apart in the source; their conditions may differ.

Columns and labels:
[1] = system: rat mammary adenocarcinoma MTF7; test: Experimental metastasis of rat mammary adenocarcinoma, rats treated i.v.; assay type: in vivo, Fischer (F344/CDL) rats; conditions: for Lung Metastases per rat, Median No.: 0.1 ml of 10 mg/ml i.v. 8 h before and 16 h after 5×10^4 MTF7 cells, 30 days; for effectiveness against lung tumor colonies of mammary carcinoma, in words: i.v. treatment of rats
Protocol: Inbred 8-week-old female Fischer (F344/CDL) rats were supplied by the Charles River Breeding Laboratories (Kingston, N.Y.). Animals were quarantined for 7 days before use and feed standard rodent chow and unchlorinated spring water ad libitum. They were maintained under guidelines set forth by the University of Texas M. D. Anderson Cancer Center and the Institute of Laboratory Animal Resources, National Research Council. […] The cells grown at 37° C. in an atmosphere of 5% CO2 in humidified air in an 1:1 mixture of Dulbecco's modified minimum essential media and Ham's F12 media containing 10% fetal bovine serum and no antibiotics in 100 mm-diam. tissue culture plates.
The cells used in this study were in exponential growth phase and were from passages 14 to 20 in vitro and were free of mycoplasma and viral contamination.
Rats (9 per group) were injected i.v. (lateral tail vein) with 0.1 ml of 10 mg/ml solution of heparin, N-acetylated-N-desulfated heparin, or carboxyl-reduced heparin. Eight hours later, the same rats were injected i.v. with 5×10^4 MTF7 mammary carcinoma cells suspended in 0.2 ml serum-free media. Sixteen hours after injections of carcinoma cells, rats were treated with unmodified or chemically modified heparin at the same dose as the previous treatment 8 hours prior to the injection of carcinoma cells.
Rats were killed 30 days after the initial injection of carcinoma cells and examined for the number of lung tumor colonies, that should represent the degree of metastatic spread of mammary carcinoma cells.

[2] = system: melanoma heparanase; conditions: cited from earlier work
[3] = system: B16 melanoma heparanase; test: Solid-phase assay for heparanase inhibitors (3H-HS-agarose beads); assay type: biochemical, mouse; conditions: B16-BL6 lysate of 10^6 cells, various concentrations, 37° C.
Protocol: The measurements were performed by incubating B16-BL6 melanoma heparanase. The measurements were performed by incubating B16-BL6 melanoma cell lysates equivalent to 10^6 cells with a suspension of ^3 H-HS-agarose beads prepared by partial N-desulfation and ^3 H-acetylation (approximately 20% suspension), and various concentrations of heparanase inhibitors at 37° C. for 24 hr with gentle mixing.
Source of Heparanase. Highly invasive mouse B16 melanoma (B16-BL6) cells were provided by Dr. I. J. Fidler, (M.D. Anderson Hospital, Houston, Tex.) and were cultured as previously described (Irimura et al., (1983a) and Irimura et al. (1984)). Cell extracts were prepared in 5 mM Tris-HCl buffer, pH 7.4, containing 0.25M sucrose, 50 μM calcium chloride, 10 μM phenylmethylsulfonylfluoride, and 0.2% Nonidet P-40 (Irimura et al., (1983). The melanoma extracts were stored frozen at -80° C. and used as crude heparanase.
Preparation of Solid-phase Substrates for Heparanase and Inhibitor Assays.
Solid-phase Assays for Heparanase and Heparanase Inhibitors. ^3 H-HS-agarose was suspended in Dulbecco's phosphate buffered saline (DPBS) at about 20% (v/v). The incubation conditions for the solid-phase assay were identical to those of the HPLC assay, except that 75 μl of the ^3 H-HS-agarose suspension was used instead of the HS so that the incubation mixture consisted of B16 melanoma extract, chemically modified heparins, 4×heparanase assay buffer, and ^3 H-HS-agarose suspension. After incubation, the reaction mixture was placed on ice, chilled 5% trichloroacetic acid (50 ul) added, the mixture incubated for 10 min, and centrifuged. Radioactivity in the supernatant and the pellet was determined separately after mixing with Hydrofluor.

[4] = system: B16 melanoma cells; test: Blood-borne lung colonization, mice treated i.v. with heparins; assay type: in vivo, C57BL/6 mice; conditions: for Number of lung colonies, Median: 0.1 ml of 5.0 mg/ml i.v. 4 hr before and 20 hr after inoculation of 5×10^4 cells, 20 days; for establishment of metastatic tumor colonies in the lungs, in words: i.v. treatment of mice
Protocol: Chemically modified heparins were tested in mice as inhibitors of blood-borne lung colonization by melanoma cells. Male C57BL/6 mice 4 to 6 weeks old were obtained from Charles River, Inc. and quarantined for 2 weeks. The mice were intravenously inoculated with 5×10^4 B16-BL melanoma cells. Treated mice were intravenously injected with 0.1 ml each of heparin or chemically modified heparin (5.0 mg/ml) 4 hr before and 20 hr after inoculation with the melanoma cells. The chemically modified heparins used were: N-acetylated N-desulfated heparin; carboxyl-reduced heparin; and N-resulfated N, O-desulfated heparin.
Mice were killed 20 days after tumor inoculation and autopsied. The numbers of pulmonary tumor colonies were counted after the lungs were perfused via the trachea with 4% formalin in Dulbecco's phosphate-buffered saline.

[5] = system: B16-F10 melanoma cells; test: Invasion of organ-cultured lung tissues by melanoma cells; assay type: cell-based; conditions: organ-cultured minced mouse lung
Text: FIG. 10: Effects of modified heparins on the B16-F10 melanoma cell-invasionof isolated mouse lung tissues in vitro. The experimental conditions were the same as the adhesion experiments. The invaded cells were counted on 4 μm sections under a light microscope. (See Nicolson et al., (1985) Invasion Metastasis, 5:144-158, for detailed methods.)
The effects of these glycosaminoglycan derivates on organ-specific adhesion and invasion of B16 melanoma cells were studied by using primary organ culture techniques in vitro. Minced lung tissues (0.5-1.0 cubic mm) from C57BL/6 mice were placed in glass vials and incubated in HEPES-buffered Dulbecco's modified minimum essential media containing 10% fetal bovine serum and 50 ug/ml gentamycin under continuous gyration at 66 rpm. After the medium was changed to a fresh medium without gentamycin, B16-F10 melanoma cells were added at a final concentration of 100,000/ml with or without various modified heparins. After various incubation times, the tissues were fixed in buffered formalin and processed for light microscopy. The adhesion and invasion of the tumor cells were examined on […] sections stained with hematoxylin and eosin.

[6] = system: B16-BL6 melanoma cells; test: Experimental blood-borne lung colonization, melanoma cells preincubated with heparins; assay type: in vivo, C57BL/6 mice; conditions: for Number of colonies (median), Exp 1 / Number of colonies (median), Exp 2 / Number of colonies, Exp 1 (individual mice): cells incubated with 500 ug/ml at 4° C. for 2 hr before i.v. injection, lung, 20 days; for Number of colonies, Exp 1 (individual mice): 9 mice/group
Protocol: Experimental Metastatic Lung Colonization of Melanoma Cells. Male C57BL/6 mice 4 to 6 weeks old were obtained from Charles River, Inc. (Kingston, Md.) and quarantined for 2 weeks. Animals were fed normal rodent chow and unchlorinated spring water. B16-BL6 cells were grown to subconfluence, detached from plastic dishes by incubating in 2 mM EDTA, 0.14M NaCl and 10 mM sodium phosphatebuffer, pH 7.4, for 5-10 min, and suspended in a 1:1 mixture of Dulbecco's modified minimum essential medium and Ham's F12 medium. […] Treated or untreated cells (5×10^4 /0.1 ml) were injected intravenously to each mouse. Mice were killed 20 days later and autopsied. The numbers of pulmonary tumor nodules were counted after the lung was perfused via the trachea with 4% formalin in Dulbecco's phosphate buffered saline. Extrapulmonary tumor formation was assessed in each animal and recorded.

[7] = system: B16-BL6 melanoma; test: Release of 35S-labeled substances from lung capillary endothelial extracellular matrix by melanoma cells; assay type: cell-based, mouse; conditions: for degradation of sulfated molecules of endothelial matrix by melanoma cells: 35S-labeled matrix, B16-BL6 cells, 37° C., 18 hours
Protocol: FIG. 6: Effects of chemically modified heparins on the release of ^35 S labeled substances from the extracellular matrix of mouse lung capillary endothelial cells in vitro. […] (See: Nakajima et al., Science 220:611-613, 1983, for the methods.)
Effects of chemically modified heparins on the release of ^35 S-labeled polysaccharides from the extra-cellular matrix of mouse lung endothelial cells were studied in vitro. The endothelial cells isolated from mouse lung capillary were grown in the presence of ^35 S-sulfate, and the extracellular matrix-like material was isolated on multiwell plastic tissue culture plates by hypotonic lysis of the cells. The matrices (1 cm diameter) were incubated with mouse B16-BL6 melanoma at 37° C. for 18 hours. The released radioactivity was counted.

[8] = system: B16-BL6 cells; test: Adhesion of melanoma cells to endothelial cell monolayers; assay type: cell-based, mouse; conditions: B16 cells pretreated 2 hrs, continuous presence of compounds, 37° C.
Protocol: FIG. 8: Adhesion of B16 melanoma cells to bovine aortic endothelial cell monolayers. FIG. 8(a) B16 melanoma cells were pretreated with modified heparins at room temperature for 2 hrs, and the adhesion assays were performed in the continuous presence of these compounds at 37° C. FIG. 8(b) Endothelial cells were pretreated with modified heparins at 37° C. for 2 hrs, then adhesion assays were performed. (See Nicolson and Custead, (1985) Cancer Res. 45:331-336, for the methods
One of the most critical steps in the tumor cell-microvascular endothelium interaction during metastatic lung colonization of melanoma cells is the adhesive interaction of melanoma cells with endothelial cells. The effects of modified heparins on the adhesion of B16 melanoma to the cell monolayer and to the extracellular matrix of lung capillary endothelial cells were studied in vitro. The endothelial cells were grown in tissue culture and the extracellular matrices were isolated as described in Example 8.

[9] = system: B16 melanoma heparanase; test: HPLC assay for heparanase inhibition (14C-HS degradation, gel-permeation chromatography); assay type: biochemical, mouse; conditions: 1 mg/ml in incubation mixture, crude heparanase of 10^6 B16-BL6 cells, 37° C., 6 h
Protocol: A high-speed gel-permeation chromatography system was equipped with a 0.70×75 cm column of Fractogel TSK-HW55(S). Elution was performed with 0.2M NaCl at a flow rate of 1.0 ml/min at 55° C. Each 0.5-ml fraction corresponding to 30-sec elution was collected, mixed with 3 ml of Hydrofluor and its radioactivity determined. Panel A, ^14 C-HS was incubated with heat-inactivated crude heparanase (10^6 B16-BL6-melanoma cell equivalents) at 37° C. for 6 h, and analyzed. B, same incubation as A except that the enzyme was not heat-inactivated.
High-speed gel permeation chromatography was performed as described previously (Irimura et al., (1983a) Anal. Biochem., V 130, pp 461-468) using a Constametric III (LDC-Milton Roy, Riviera Beach, Fla.) with a single 0.7×75 cm stainless steel column packed with Fractogel TSK HW-55(S). Elution was accomplished with 0.2M sodium chloride at flow rates of 1.0 ml/min or 0.75 ml/min. Absorption at 210 nm was monitored for the analogs of chemically modified heparin. For the qualitative examination of radiolabeled HS-degradation products, each fraction corresponding to 30-sec elution was collected into plastic scintillation vials, and radioactivity in each vial was determined after the fraction was mixed with 3.0 ml of Hydrofluor (National Diagnostics, Somerville, N.J.).
Cell extracts were prepared in 5 mM Tris-HCl buffer, pH 7.4, containing 0.25M sucrose, 50 μM calcium chloride, 10 μM phenylmethylsulfonylfluoride, and 0.2% Nonidet P-40 (Irimura et al., (1983). The melanoma extracts were stored frozen at -80° C. and used as crude heparanase.
High-Performance Liquid Chromatography [HPLC] Assay for Heparanase. Fifty microliters of melanoma extract (equivalent to 10^6 cells) were mixed with chemically modified heparin (5 mg/ml in water), 50 μl of 4×heparanase assay buffer (0.4 sodium phosphate buffer, pH 5.8, containing 0.4% Triton X-100, 0.6M sodium chloride, and 0.4% sodium azide) and about 3000 cpm of ^14 C-HS.

[10] = system: B16-BL6 melanoma cells; test: 3H-thymidine incorporation, growth of melanoma cells in tissue culture; assay type: cell-based, mouse; conditions: with or without 5% fetal bovine serum; 48 h exposure
Protocol: FIG. 7: Effects of chemically modified heparins on the incorporation of ^3 H-thymidine to B16-BL6 melanoma cells grown in tissue culture.
In order to assess a possibility that the effects of modified heparins on the blood-borne lung colonization of B16 melanoma cells were due to their direct toxic effects on the cells, the growth of B16 melanoma in the presence or absence of modified heparins were examined in vitro. B16-BL6 melanoma cells were seeded in multiwell tissue culture plates at a density 10,000 per each 1 cm well in the presence or absence of 5% fetal bovine serum. Six hours later, modified heparins were added, then 24 hours later, ^3 H thymidine was added to a final concentration 5 uCi/ml. After further 24 hour incubation, trichloroacetic acid-insoluble materials were collected, dissolved in 1M sodium hydroxide solution, neutralized and counted on a liquid scintillation counter.

[11] = system: blood coagulation; test: Anticoagulation activity by USP standard assay; conditions: % of the anticoagulation activity of unmodified heparin
[12] = system: vascular smooth muscle cells; conditions: cited from earlier work

Row | Substance | heparanase inhibitory activity (solid-phase assay, release of 3H-HS fragments) [3] | inhibition of degradation of HS by heparanase (HPLC assay) [9] | incorporation of 3H-thymidine to B16 cells [10] | Lung Metastases per rat, Median No. [1] | effectiveness against lung tumor colonies of mammary carcinoma, in words [1] | Number of lung colonies, Median [4] | Number of colonies (median), Exp 1 [6] | Number of colonies (median), Exp 2 [6] | Number of colonies, Exp 1 (individual mice) [6] | degradation of sulfated molecules of endothelial matrix by melanoma cells [7] | anticoagulation activity relative to unmodified heparin [11] | anti-proliferative (growth inhibitory) activity [12] | further results
1 | N-acetylated N- and O-desulfated heparin | did not, however, restore the inhibitory activity |  |  |  |  |  |  |  |  |  |  |  | 
2 | N-acetylated N-desulfated heparin | partially restored |  | no significant effects | 29 | also effective | 60 | 43 | 5 | 199 |  | less than 1% | retained full growth inhibitory properties | 
3 | N-desulfated N-resulfated heparin [reference compound] |  |  |  |  |  |  |  |  |  |  |  | retained full growth inhibitory properties | 
4 | N-resulfated N- and O-desulfated heparin | partial restoration of activity | partially restored |  |  |  | 36 |  | 8 |  | effectively blocked the degradation | less than 1% |  | 
5 | carboxy-reduced heparin | weaker inhibitory activity than heparin |  | no significant effects | 25 | also effective | 6 | 29 | 51 | 53 | effectively blocked the degradation | less than 1% |  | establishment of metastatic tumor colonies in the lungs, in words [4]: most effective

Continued, in another order:

Row | heparanase inhibitory activity (solid-phase assay, release of 3H-HS fragments) [3] | inhibition of degradation of HS by heparanase (HPLC assay) [9] | incorporation of 3H-thymidine to B16 cells [10] | Substance | Lung Metastases per rat, Median No. [1] | effectiveness against lung tumor colonies of mammary carcinoma, in words [1] | Number of lung colonies, Median [4] | Number of colonies (median), Exp 1 [6] | Number of colonies (median), Exp 2 [6] | Number of colonies, Exp 1 (individual mice) [6] | degradation of sulfated molecules of endothelial matrix by melanoma cells [7] | anticoagulation activity relative to unmodified heparin [11] | anti-proliferative (growth inhibitory) activity [12] | further results
6 | consistent with those of the HPLC assay | no degradation was observed | no significant effects | Heparin [reference compound] | 9 | most effective | 30 | 16 | 0 | 174 | inhibited the degradation |  |  | inhibition of HS degradation by B16 cell extracts [2]: inhibited HS degradation; establishment of metastatic tumor colonies in the lungs, in words [4]: inhibited formation of lung metastases; invasion of B16 melanoma cells to lung tissues [5]: inhibited invasion; number of visible melanoma colonies in lung, in words ([6]; 20 days after injection of preincubated cells): greater; spontaneous (non-enzymatic) release of 35S labeled macromolecules ([7]; in the absence of B16 melanoma cells): apparently induced spontaneous release; also recorded: induced non-enzymatic release; time course of adhesion to endothelial cell monolayer, melanoma cells pretreated [8]: None of these compounds, including intact heparin, significantly altered
7 | failed to how any inhibitory activity | failed to inhibit degradation |  | N- and O-desulfated heparin |  |  |  |  |  |  |  |  |  | 
8 | failed to how any inhibitory activity | failed to inhibit degradation |  | completely N-desulfated heparin |  |  |  |  |  |  |  |  | lost their anti-proliferative activity | 
